Test results published in paper PMC8550792, “Evolution of kinase polypharmacology across HSP90 drug discovery” (Cell Chemical Biology, 2021).

Experiments:
Test in all cases: biochemical
Assay type in all cases: biochemical
382 unique human kinases [1] = target: T1, 382 unique human kinases (Homo sapiens, UniProt P24723); conditions: PKCeta, 10 uM; for remaining activity at 10 µM: read-out: % Enzyme Activity (relative to DMSO controls)
T1 construct: purchased Reaction Biology (HotSpot contract assay)
T1 sequence (P24723 whole entry): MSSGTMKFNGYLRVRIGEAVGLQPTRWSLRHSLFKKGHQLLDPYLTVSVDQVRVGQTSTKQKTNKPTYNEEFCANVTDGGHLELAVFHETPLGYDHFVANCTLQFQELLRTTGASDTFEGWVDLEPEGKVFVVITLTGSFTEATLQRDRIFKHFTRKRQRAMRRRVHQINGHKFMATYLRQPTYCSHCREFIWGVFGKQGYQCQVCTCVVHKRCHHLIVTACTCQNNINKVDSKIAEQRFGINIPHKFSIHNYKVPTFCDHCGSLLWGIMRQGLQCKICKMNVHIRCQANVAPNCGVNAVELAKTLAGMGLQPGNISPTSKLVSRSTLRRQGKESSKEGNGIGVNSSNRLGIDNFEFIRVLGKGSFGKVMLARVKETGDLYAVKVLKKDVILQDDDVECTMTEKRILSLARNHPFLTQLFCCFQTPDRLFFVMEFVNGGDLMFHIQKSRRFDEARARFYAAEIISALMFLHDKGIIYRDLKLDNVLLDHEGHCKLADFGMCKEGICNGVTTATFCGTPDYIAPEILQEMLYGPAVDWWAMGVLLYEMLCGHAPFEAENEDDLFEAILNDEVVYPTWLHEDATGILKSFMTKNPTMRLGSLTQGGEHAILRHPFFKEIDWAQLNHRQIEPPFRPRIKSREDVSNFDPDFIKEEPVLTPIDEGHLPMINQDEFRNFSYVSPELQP

382 unique human kinases [2] = target: T2, 382 unique human kinases (Homo sapiens, UniProt Q13557); conditions: CAMK2d, 10 uM; for remaining activity at 10 µM: read-out: % Enzyme Activity (relative to DMSO controls)
T2 construct: purchased Reaction Biology (HotSpot contract assay)
T2 sequence (Q13557 whole entry): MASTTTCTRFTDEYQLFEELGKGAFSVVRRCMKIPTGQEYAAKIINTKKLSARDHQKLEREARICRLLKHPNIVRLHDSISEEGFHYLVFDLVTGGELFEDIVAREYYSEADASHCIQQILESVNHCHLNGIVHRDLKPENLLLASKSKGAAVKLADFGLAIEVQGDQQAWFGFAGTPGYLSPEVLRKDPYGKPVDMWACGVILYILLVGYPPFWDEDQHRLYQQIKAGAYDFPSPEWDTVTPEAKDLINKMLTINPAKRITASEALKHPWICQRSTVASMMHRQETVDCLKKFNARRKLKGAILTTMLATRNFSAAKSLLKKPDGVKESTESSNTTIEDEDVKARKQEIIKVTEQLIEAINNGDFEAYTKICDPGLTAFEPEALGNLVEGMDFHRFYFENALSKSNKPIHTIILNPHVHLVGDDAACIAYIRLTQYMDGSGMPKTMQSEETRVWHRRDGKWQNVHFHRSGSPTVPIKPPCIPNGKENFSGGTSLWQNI

382 unique human kinases [3] = target: T3, 382 unique human kinases (Homo sapiens, UniProt Q96PF2); conditions: kinase TSSK2, compound 10 uM; for remaining activity at 10 µM: read-out: % Enzyme Activity (relative to DMSO controls)
T3 construct: purchased Reaction Biology (HotSpot contract assay)
T3 sequence (Q96PF2 1-358): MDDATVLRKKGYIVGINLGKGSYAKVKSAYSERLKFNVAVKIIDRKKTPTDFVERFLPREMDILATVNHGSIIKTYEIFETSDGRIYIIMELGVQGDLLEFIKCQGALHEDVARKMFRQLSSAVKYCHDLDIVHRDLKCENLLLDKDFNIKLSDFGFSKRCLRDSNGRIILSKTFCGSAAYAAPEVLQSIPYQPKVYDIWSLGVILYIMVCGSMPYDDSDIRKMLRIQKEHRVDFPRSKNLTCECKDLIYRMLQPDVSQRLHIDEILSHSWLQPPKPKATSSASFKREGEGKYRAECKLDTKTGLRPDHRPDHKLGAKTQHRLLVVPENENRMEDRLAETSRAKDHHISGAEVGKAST

382 unique human kinases [4] = target: T4, 382 unique human kinases (Homo sapiens, UniProt Q02763, Y1108F); conditions: kinase TIE2 (Y1108F), compound 10 uM; for remaining activity at 10 µM: read-out: % Enzyme Activity (relative to DMSO controls)
T4 construct: purchased Reaction Biology (HotSpot contract assay)
T4 sequence (Q02763 23-1124 Y1108F): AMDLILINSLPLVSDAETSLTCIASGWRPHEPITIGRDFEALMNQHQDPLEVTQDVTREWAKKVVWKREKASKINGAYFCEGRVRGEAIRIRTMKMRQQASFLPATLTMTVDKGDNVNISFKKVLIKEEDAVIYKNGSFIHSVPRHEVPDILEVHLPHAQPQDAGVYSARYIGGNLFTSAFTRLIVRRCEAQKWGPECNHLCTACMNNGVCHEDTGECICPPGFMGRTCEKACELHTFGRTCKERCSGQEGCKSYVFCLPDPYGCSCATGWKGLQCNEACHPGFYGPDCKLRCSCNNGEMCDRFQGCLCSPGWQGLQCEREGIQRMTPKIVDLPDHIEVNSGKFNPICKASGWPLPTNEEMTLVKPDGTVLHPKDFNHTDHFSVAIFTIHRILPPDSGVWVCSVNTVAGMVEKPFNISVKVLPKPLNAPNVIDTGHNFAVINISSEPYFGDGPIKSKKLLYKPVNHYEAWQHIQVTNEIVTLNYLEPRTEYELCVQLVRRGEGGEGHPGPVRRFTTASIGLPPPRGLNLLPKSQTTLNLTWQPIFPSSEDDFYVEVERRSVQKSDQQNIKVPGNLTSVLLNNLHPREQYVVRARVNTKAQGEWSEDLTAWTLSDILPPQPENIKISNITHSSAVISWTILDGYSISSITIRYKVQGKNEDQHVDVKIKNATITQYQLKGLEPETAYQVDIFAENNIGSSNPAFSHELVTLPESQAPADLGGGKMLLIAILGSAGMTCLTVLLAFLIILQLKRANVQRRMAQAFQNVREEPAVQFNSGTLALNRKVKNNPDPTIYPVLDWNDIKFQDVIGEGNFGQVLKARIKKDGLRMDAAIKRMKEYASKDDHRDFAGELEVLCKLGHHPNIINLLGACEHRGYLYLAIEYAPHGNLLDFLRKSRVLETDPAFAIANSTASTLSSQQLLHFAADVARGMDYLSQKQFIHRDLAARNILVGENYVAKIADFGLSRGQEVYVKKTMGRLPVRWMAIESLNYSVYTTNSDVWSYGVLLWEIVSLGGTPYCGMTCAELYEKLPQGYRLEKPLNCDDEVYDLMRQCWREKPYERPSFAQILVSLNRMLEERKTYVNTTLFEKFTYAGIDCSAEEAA

382 unique human kinases [5] = target: T5, 382 unique human kinases (Homo sapiens, UniProt P36894); conditions: ALK3/BMPR1A, 10 uM; for remaining activity at 10 µM: read-out: % Enzyme Activity (relative to DMSO controls)
T5 construct: purchased Reaction Biology (HotSpot contract assay)
T5 sequence (P36894 24-532): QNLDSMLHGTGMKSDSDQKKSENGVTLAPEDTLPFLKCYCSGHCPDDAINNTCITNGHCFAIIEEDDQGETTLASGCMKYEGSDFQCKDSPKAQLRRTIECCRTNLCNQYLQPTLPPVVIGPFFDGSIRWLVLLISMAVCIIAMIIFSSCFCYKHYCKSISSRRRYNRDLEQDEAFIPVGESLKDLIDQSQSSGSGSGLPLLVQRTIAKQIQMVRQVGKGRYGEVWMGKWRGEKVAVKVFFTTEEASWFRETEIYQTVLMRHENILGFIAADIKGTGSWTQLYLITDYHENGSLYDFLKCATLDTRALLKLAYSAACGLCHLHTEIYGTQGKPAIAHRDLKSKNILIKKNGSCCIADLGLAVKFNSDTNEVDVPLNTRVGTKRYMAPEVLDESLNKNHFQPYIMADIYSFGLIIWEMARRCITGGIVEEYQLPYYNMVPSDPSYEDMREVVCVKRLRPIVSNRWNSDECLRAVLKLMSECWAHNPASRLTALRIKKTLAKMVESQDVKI

382 unique human kinases [6] = target: T6, 382 unique human kinases (Homo sapiens, UniProt Q8IU85); conditions: kinase CAMK1d, compound 10 uM; for remaining activity at 10 µM: read-out: % Enzyme Activity (relative to DMSO controls)
T6 construct: purchased Reaction Biology (HotSpot contract assay)
T6 sequence (Q8IU85 whole entry): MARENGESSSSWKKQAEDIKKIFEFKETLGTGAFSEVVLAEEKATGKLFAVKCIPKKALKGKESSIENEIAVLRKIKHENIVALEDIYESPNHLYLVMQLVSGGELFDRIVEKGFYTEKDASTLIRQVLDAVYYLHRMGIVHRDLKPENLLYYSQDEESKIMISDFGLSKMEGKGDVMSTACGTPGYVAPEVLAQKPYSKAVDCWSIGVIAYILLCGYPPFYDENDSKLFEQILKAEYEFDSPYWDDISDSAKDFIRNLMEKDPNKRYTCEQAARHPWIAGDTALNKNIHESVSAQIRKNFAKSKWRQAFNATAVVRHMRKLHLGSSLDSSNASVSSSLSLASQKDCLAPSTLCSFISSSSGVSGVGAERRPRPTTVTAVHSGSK

382 unique human kinases [7] = target: T7, 382 unique human kinases (Homo sapiens, UniProt P08581, T992I); conditions: c-MET (T992I), 10 uM; for remaining activity at 10 µM: read-out: % Enzyme Activity (relative to DMSO controls)
T7 construct: purchased Reaction Biology (HotSpot contract assay)

382 unique human kinases [8] = target: T8, 382 unique human kinases (Homo sapiens, UniProt Q6VAB6); conditions: KSR2, 10 uM; for remaining activity at 10 µM: read-out: % Enzyme Activity (relative to DMSO controls)
T8 sequence (Q6VAB6 1-950): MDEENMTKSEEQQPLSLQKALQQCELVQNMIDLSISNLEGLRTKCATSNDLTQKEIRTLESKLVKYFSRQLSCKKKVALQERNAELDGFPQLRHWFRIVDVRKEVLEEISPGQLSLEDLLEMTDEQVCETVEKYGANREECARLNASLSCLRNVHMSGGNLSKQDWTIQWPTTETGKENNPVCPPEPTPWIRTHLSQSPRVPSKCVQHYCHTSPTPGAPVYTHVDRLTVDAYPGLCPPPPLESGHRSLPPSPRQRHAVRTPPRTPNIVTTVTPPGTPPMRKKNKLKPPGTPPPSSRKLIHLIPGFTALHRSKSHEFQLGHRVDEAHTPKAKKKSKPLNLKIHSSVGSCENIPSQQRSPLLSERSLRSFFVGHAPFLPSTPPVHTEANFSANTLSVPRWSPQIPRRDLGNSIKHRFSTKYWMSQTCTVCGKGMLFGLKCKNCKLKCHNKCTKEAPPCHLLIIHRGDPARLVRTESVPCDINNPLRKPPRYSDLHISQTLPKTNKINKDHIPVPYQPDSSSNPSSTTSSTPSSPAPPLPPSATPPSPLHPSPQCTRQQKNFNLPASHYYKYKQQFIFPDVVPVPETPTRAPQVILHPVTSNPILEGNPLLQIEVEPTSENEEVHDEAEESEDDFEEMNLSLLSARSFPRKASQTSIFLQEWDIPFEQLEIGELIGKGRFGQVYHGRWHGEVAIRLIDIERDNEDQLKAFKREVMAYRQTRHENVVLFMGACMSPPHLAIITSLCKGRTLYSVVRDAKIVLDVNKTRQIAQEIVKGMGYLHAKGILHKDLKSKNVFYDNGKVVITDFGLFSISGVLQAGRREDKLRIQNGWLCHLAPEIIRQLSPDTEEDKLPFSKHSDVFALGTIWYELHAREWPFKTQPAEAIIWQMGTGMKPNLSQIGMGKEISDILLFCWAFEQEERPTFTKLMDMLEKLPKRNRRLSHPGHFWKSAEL

382 unique human kinases [9] = target: T9, 382 unique human kinases (Homo sapiens, UniProt P54753); conditions: EPHB3, 10 uM; for remaining activity at 10 µM: read-out: % Enzyme Activity (relative to DMSO controls)
T9 construct: purchased Reaction Biology (HotSpot contract assay)
T9 sequence (P54753 34-998): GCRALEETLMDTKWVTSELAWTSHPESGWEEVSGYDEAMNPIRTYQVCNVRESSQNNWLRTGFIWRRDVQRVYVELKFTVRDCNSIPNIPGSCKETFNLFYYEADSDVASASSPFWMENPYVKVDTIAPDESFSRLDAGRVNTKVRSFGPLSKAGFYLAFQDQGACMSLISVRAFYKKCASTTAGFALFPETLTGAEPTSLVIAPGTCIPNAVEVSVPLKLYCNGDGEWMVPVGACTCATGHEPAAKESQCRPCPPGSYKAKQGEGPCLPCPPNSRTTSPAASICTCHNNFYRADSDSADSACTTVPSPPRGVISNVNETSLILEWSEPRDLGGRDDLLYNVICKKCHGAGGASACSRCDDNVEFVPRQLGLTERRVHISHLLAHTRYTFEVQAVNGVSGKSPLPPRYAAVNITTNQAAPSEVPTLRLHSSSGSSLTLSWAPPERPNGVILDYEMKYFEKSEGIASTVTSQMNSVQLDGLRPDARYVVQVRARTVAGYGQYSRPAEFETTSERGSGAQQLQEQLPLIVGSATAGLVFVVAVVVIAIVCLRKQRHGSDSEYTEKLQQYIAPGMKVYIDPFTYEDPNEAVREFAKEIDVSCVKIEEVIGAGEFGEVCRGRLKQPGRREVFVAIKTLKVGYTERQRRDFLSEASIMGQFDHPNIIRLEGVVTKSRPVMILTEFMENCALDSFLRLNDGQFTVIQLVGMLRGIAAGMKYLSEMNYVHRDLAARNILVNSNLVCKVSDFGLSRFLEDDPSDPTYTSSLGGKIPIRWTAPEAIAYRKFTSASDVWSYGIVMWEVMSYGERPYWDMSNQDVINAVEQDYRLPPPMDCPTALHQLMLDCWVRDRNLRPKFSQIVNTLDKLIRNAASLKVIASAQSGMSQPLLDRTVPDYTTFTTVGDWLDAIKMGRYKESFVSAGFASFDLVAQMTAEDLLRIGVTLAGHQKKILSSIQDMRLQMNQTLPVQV

382 unique human kinases [10] = target: T10, 382 unique human kinases (Homo sapiens, UniProt P41279); conditions: COT1/MAP3K8, 10 uM; for remaining activity at 10 µM: read-out: % Enzyme Activity (relative to DMSO controls)
T10 construct: purchased Reaction Biology (HotSpot contract assay)
T10 sequence (P41279 whole entry): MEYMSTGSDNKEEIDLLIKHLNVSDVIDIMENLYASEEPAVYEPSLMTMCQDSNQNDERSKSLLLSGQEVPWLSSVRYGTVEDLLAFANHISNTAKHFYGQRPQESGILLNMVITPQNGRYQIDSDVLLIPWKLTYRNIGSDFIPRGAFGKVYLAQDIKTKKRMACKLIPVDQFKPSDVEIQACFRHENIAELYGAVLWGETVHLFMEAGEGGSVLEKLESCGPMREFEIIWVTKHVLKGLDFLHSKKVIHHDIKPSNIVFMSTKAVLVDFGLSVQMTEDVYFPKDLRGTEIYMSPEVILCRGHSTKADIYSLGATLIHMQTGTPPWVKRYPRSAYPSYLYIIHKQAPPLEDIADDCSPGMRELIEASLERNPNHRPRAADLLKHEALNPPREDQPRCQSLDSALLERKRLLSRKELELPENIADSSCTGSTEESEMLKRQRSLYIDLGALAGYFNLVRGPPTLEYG

SMILES | remaining activity at 10 µM (382 unique human kinases [1]) [%] | remaining activity at 10 µM (382 unique human kinases [2]) [%] | remaining activity at 10 µM (382 unique human kinases [3]) [%] | remaining activity at 10 µM (382 unique human kinases [4]) [%] | remaining activity at 10 µM (382 unique human kinases [5]) [%] | remaining activity at 10 µM (382 unique human kinases [6]) [%] | remaining activity at 10 µM (382 unique human kinases [7]) [%] | remaining activity at 10 µM (382 unique human kinases [8]) [%] | remaining activity at 10 µM (382 unique human kinases [9]) [%] | remaining activity at 10 µM (382 unique human kinases [10]) [%] | % Enzyme Activity (relative to DMSO controls) (382 unique human kinases [1]) [%] | % Enzyme Activity (relative to DMSO controls) (382 unique human kinases [2]) [%] | % Enzyme Activity (relative to DMSO controls) (382 unique human kinases [3]) [%] | % Enzyme Activity (relative to DMSO controls) (382 unique human kinases [4]) [%] | % Enzyme Activity (relative to DMSO controls) (382 unique human kinases [5]) [%] | % Enzyme Activity (relative to DMSO controls) (382 unique human kinases [6]) [%] | % Enzyme Activity (relative to DMSO controls) (382 unique human kinases [7]) [%] | % Enzyme Activity (relative to DMSO controls) (382 unique human kinases [8]) [%] | % Enzyme Activity (relative to DMSO controls) (382 unique human kinases [9]) [%] | % Enzyme Activity (relative to DMSO controls) (382 unique human kinases [10]) [%]
CC(C)c1cc(-c2n[nH]c(=O)n2-c2ccc3c(ccn3C)c2)c(O)cc1O [Ganetespib (STA9090)] | 75.8 | 72.8 | 90.3 | 90 | 59.1 | 86.2 |  |  |  |  |  |  |  |  |  |  |  |  |  | 
CC(C)c1cc(-c2n[nH]c(=O)n2-c2ccc3c(ccn3C)c2)c(O)cc1O [Ganetespib] |  |  |  |  |  |  | 95.6 | 94.1 | 94.5 | 116 |  |  |  |  |  |  |  |  |  | 
CCNC(=O)c1noc(-c2cc(C(C)C)c(O)cc2O)c1-c1ccc(CN2CCOCC2)cc1 [Luminespib (AUY-922)] | 106 | 89.9 | 102 | 110 | 100 | 101 |  |  |  |  | 105.31 | 89.83 | 101.80 | 108.40 | 99.39 | 100.18 |  |  |  | 
CCNC(=O)c1noc(-c2cc(C(C)C)c(O)cc2O)c1-c1ccc(CN2CCOCC2)cc1 [Luminespib] |  |  |  |  |  |  | 91.3 | 96.3 | 95.5 | 95.4 |  |  |  |  |  |  | 90.73 | 96.02 | 94.58 | 93.56
